Source: patent publication US10577308B2, “Sodium channel modulators” (The Florey Institute of Neuroscience and Mental Health, priority 2015, dated 2020)
Where two headings read alike, the source gives them in different places.

What was measured:
hNav1.6 = hNav1.6 (Homo sapiens (Human), UniProt Q9UQD0); test: Automated patch clamp (IonWorks Quattro) block of hNav1.6 channels in CHO cells; format: cell-based
From the text: (§1) FIG. 1 depicts the voltage sequence used to measure inhibitory activity of compounds as described in Example 3. An automated patch clamp screening assay was used to measure the inhibitory effect (potency) of compounds in three conformational states of the sodium channel: (1) the tonic state (TP1); (2) the frequency-dependent (10 Hz) state (TP11) and (3) the inactivated state (TP12).
(§2) Test Protocol for Determining the Potency of Compounds on Nav1.2 and Nav1.6 Subtypes of Voltage-Gated Sodium Ion Channels Expressed in Mammalian Cells
(§3) Cell culture procedures: Chinese hamster ovary (CHO) cells were stably transfected with the cDNA sequence of either the human SCN2A or SCN8A genes to create hNav1.2 or hNav1.6 cells respectively. The cell lines were cultured in Ham's F-12 medium supplemented with 10% fetal bovine serum and antibiotics in a tissue incubator at 37° C. under a humidified air/CO2 mixture (95/5 v/v). On the day of the experiment, cells were washed twice with Hank's balanced salt solution, treated with trypsin, and resuspended in fresh culture media at a density of 4−6×10^6 cells in 20 ml. Immediately before placing in the IonWorks Quattro instrument, cells were washed in Hank's balanced salt solution to remove culture medium and re-suspended in 3 ml of Hank's balanced salt solution.
(§4) Automated patch clamp recordings of cells using the IonWorks Quattro Instrument: The assay used a 384 microwell plate, which enabled 20 compounds to be studied at four different concentrations in quadruplicate as well as allowing a vehicle control group and a positive control group using mexiletine at 8 different concentrations. Cells were added to the wells of the Population Patch Clamp planar electrode using a 48-channel pipettor in a volume of 6 μL, per well. After 5 minutes incubation at ambient temperature with compounds or vehicle, membrane currents were recorded using the patch clamp amplifier. The pulse pattern was repeated twice, before and after compound addition and peak current amplitudes were measured at three test pulses, TP1, TP11 and TP12 to measure Tonic Block, 10 Hz Frequency-dependent Block and Inactivation State Block, respectively.
(§5) Data analysis: Data acquisition and analyses were carried out using the IonWorks Quattro system operation software which uses an algorithm to correct data for leak currents. Concentration-response curves were fitted by non-linear least squares regression allowing calculation of an IC50 value (μM), being the concentration of the compound producing half-maximal inhibition.

hNav1.2 = hNav1.2 (Homo sapiens (Human), UniProt Q99250); test: Automated patch clamp (IonWorks Quattro) block of hNav1.2 channels in CHO cells; format: cell-based
Chain of hNav1.2 (Q99250 whole entry): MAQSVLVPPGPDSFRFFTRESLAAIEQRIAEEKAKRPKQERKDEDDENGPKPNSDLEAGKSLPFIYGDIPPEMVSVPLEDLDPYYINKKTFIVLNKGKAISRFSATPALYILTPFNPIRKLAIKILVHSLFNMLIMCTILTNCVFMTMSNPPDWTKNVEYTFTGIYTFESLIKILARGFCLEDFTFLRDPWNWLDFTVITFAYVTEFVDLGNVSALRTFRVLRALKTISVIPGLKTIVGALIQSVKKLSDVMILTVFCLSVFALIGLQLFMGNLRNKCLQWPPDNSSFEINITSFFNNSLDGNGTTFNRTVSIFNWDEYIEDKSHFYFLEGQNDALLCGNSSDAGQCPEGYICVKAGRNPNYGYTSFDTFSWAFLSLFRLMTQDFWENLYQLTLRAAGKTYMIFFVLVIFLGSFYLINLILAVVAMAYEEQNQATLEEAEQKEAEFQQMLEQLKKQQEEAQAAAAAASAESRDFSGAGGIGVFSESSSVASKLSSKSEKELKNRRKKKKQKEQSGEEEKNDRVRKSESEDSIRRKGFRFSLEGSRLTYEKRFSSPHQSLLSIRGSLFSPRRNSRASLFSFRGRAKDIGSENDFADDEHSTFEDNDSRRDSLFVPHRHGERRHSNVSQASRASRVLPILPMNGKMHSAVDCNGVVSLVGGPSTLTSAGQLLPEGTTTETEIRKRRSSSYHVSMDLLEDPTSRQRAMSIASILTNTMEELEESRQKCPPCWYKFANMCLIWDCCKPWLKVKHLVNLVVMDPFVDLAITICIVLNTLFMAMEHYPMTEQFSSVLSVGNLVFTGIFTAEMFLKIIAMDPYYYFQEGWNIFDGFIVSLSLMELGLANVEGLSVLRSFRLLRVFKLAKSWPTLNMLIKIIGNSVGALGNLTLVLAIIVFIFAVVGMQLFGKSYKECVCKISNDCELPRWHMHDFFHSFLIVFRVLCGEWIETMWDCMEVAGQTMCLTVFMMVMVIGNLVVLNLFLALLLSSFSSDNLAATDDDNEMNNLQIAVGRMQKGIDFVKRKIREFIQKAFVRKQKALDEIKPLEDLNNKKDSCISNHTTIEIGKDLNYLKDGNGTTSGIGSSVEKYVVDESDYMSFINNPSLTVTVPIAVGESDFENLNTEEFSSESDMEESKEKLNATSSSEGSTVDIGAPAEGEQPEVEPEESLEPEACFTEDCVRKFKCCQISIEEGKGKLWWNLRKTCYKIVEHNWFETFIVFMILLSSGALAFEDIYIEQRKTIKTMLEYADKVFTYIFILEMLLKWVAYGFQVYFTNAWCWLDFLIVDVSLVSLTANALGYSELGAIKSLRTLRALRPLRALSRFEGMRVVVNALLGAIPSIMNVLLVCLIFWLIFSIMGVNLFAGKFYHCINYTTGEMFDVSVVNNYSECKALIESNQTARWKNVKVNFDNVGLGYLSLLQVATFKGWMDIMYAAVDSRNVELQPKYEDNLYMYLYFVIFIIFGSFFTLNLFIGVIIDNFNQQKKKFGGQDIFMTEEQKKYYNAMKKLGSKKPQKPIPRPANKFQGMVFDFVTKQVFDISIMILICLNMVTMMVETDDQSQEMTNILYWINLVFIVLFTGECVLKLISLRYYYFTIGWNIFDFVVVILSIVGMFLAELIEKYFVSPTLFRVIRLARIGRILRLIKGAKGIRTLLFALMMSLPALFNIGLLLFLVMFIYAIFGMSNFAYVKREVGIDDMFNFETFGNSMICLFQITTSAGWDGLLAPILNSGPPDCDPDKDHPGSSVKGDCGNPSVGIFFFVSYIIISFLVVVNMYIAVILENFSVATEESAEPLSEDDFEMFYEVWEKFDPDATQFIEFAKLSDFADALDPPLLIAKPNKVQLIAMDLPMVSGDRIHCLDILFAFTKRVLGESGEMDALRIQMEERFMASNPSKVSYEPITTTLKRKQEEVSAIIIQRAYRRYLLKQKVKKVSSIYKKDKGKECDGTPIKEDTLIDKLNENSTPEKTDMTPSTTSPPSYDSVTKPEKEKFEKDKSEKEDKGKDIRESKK
From the text: as §1, §2, §3, §4, §5

[1] = 10 Hz frequency-dependent block (TP11), read-out: IC50 Nav1.6 10 Hz block
[2] = Inactivated state block (TP12), read-out: IC50 Nav1.6 Inactivated state block
[3] = Tonic block (TP1), read-out: IC50 Nav1.6 Tonic block
[4] = 10 Hz frequency-dependent block (TP11), read-out: IC50 Nav1.2 10 Hz block
[5] = Inactivated state block (TP12), read-out: IC50 Nav1.2 Inactivated state block
[6] = Tonic block (TP1), read-out: IC50 Nav1.2 Tonic block

Chain of hNav1.6 (Q9UQD0 whole entry): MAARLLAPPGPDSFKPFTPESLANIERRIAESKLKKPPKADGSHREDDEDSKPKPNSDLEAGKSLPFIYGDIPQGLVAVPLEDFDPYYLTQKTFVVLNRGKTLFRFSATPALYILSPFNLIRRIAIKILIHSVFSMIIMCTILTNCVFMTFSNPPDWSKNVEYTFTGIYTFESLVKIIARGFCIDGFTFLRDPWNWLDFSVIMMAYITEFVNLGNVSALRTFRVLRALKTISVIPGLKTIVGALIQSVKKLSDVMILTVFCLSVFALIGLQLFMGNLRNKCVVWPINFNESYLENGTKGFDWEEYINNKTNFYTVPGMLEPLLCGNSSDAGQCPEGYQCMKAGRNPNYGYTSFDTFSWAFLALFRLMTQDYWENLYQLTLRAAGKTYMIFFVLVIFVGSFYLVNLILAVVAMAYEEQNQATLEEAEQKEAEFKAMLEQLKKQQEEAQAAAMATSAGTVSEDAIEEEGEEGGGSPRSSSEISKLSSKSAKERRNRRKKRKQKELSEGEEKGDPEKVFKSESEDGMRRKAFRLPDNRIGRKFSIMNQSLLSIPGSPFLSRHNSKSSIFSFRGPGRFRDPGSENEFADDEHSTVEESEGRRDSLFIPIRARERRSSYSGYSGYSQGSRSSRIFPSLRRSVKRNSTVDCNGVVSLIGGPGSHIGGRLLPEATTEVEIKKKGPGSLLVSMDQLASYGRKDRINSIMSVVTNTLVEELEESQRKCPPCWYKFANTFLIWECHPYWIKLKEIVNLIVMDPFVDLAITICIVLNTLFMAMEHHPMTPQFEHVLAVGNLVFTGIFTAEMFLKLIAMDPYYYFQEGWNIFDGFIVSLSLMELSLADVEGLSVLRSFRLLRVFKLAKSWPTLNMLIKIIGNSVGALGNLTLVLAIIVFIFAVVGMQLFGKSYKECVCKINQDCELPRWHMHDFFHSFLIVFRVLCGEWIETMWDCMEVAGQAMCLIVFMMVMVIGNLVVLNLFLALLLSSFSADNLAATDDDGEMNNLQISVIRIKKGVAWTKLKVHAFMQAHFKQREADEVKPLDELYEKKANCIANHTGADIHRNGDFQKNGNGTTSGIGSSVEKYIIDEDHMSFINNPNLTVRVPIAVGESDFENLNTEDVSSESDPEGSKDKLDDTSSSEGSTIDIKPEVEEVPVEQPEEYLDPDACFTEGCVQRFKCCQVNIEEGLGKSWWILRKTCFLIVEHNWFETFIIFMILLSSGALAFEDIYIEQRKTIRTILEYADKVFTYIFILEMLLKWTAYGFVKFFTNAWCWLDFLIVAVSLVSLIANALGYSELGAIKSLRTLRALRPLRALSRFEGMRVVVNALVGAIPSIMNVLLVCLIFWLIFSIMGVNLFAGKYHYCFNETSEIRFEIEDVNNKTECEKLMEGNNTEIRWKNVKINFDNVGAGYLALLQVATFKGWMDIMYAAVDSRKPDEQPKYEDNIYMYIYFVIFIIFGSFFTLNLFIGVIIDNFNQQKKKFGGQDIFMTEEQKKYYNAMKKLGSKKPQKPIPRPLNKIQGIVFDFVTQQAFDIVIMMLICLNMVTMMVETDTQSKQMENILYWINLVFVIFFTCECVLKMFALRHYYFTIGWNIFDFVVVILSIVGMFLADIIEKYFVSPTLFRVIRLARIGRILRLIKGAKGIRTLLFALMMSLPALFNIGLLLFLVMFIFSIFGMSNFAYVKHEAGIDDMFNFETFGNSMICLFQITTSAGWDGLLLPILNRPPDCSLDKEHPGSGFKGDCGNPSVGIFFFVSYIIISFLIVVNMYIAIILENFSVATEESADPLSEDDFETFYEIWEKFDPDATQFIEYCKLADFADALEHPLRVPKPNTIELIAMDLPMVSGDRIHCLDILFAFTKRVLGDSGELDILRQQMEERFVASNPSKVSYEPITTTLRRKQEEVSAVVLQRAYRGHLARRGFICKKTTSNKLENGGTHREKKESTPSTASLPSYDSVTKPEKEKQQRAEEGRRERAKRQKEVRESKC

COc1ccccc1CNCCCOc1c(C)cccc1C [Compound 530, 3-(2,6-Dimethylphenoxy)-N-(2-methoxybenzyl)propan-1-amine]
IC50 (hNav1.6; [1]): 1.7 µM
IC50 (hNav1.6; [2]): 0.8 µM
IC50 (hNav1.6; [3]): 2.9 µM
IC50 (hNav1.2; [4]): 2.9 µM
IC50 (hNav1.2; [5]): 1.1 µM
IC50 (hNav1.2; [6]): 7.8 µM

Cc1cccc(C)c1OCCCNCc1ccc(OC(F)(F)F)cc1 [Compound 531, 3-(2,6-Dimethylphenoxy)-N-(4-(trifluoromethoxy)benzyl)propan-1-amine]
IC50 (hNav1.6; [1]): 56.3 µM
IC50 (hNav1.6; [2]): 40.9 µM
IC50 (hNav1.6; [3]): 138 µM
IC50 (hNav1.2; [4]): 3.6 µM
IC50 (hNav1.2; [5]): 1.4 µM
IC50 (hNav1.2; [6]): 12.5 µM

Cc1cccc(C)c1OCCCNCc1ccc(S(N)(=O)=O)cc1 [Compound 532, 4-((3-(2,6-Dimethylphenoxy)propylamino)methyl)benzenesulfonamide]
IC50 (hNav1.6; [1]): > 10 µM
IC50 (hNav1.6; [2]): 8.5 µM
IC50 (hNav1.6; [3]): > 10 µM
IC50 (hNav1.2; [4]): > 10 µM
IC50 (hNav1.2; [5]): 6.1 µM
IC50 (hNav1.2; [6]): > 10 µM

Cc1cccc(C)c1OCCCNCc1ccccc1C(F)(F)F [Compound 534, 3-(2,6-Dimethylphenoxy)-N-(2-(trifluoromethyl)benzyl)propan-1-amine]
IC50 (hNav1.6; [1]): 4.1 µM
IC50 (hNav1.6; [2]): 2.3 µM
IC50 (hNav1.6; [3]): 8.1 µM
IC50 (hNav1.2; [4]): 7.1 µM
IC50 (hNav1.2; [5]): 2.1 µM
IC50 (hNav1.2; [6]): > 10 µM

Cc1cccc(C)c1OCCCNCc1cccc(-c2ccccc2)c1 [Compound 535, N-(Biphenyl-3-ylmethyl)-3-(2,6-dimethylphenoxy)propan-1-amine]
IC50 (hNav1.6; [1]): > 1000 µM
IC50 (hNav1.6; [2]): > 1000 µM
IC50 (hNav1.6; [3]): > 1000 µM
IC50 (hNav1.2; [4]): 20.7 µM
IC50 (hNav1.2; [5]): 7 µM
IC50 (hNav1.2; [6]): 66.5 µM

Cc1cccc(C)c1OCCCNCc1ccccc1-c1ccccc1 [Compound 536, N-(Biphenyl-2-ylmethyl)-3-(2,6-dimethylphenoxy)propan-1-amine]
IC50 (hNav1.6; [1]): 3.7 µM
IC50 (hNav1.6; [2]): 1.3 µM
IC50 (hNav1.6; [3]): 21.4 µM
IC50 (hNav1.2; [4]): 1.7 µM
IC50 (hNav1.2; [5]): 0.4 µM
IC50 (hNav1.2; [6]): > 30 µM

Cc1cccc(C)c1OCCCNCc1noc(C(C)C)n1 [Compound 538, 3-(2,6-Dimethylphenoxy)-N-((5-isopropyl-1,2,4-oxadiazol-3-yl)methyl)propan-1-amine]
IC50 (hNav1.6; [1]): > 10 µM
IC50 (hNav1.6; [2]): > 10 µM
IC50 (hNav1.6; [3]): > 10 µM
IC50 (hNav1.2; [4]): > 10 µM
IC50 (hNav1.2; [5]): ~10.2 µM
IC50 (hNav1.2; [6]): > 10 µM

Cc1cccc(C)c1OCCCNCc1nn(Cc2ccccc2)c2ccccc12 [Compound 540, N-((1-Benzyl-1H-indazol-3-yl)methyl)-3-(2,6-dimethylphenoxy)propan-1-amine]
IC50 (hNav1.6; [1]): 142 µM
IC50 (hNav1.6; [2]): 80.5 µM
IC50 (hNav1.6; [3]): 287 µM
IC50 (hNav1.2; [4]): 2.3 µM
IC50 (hNav1.2; [5]): 1.2 µM
IC50 (hNav1.2; [6]): 23.5 µM

CC(=O)Nc1ccc(CNCCCOc2c(C)cccc2C)cc1 [Compound 542, N-(4-((3-(2,6-Dimethylphenoxy)propylamino)methyl)phenyl)acetamide]
IC50 (hNav1.6; [1]): > 10 µM
IC50 (hNav1.6; [2]): 7.1 µM
IC50 (hNav1.6; [3]): > 10 µM
IC50 (hNav1.2; [4]): > 10 µM
IC50 (hNav1.2; [5]): 5 µM
IC50 (hNav1.2; [6]): > 10 µM

Cc1cccc(C)c1OCCCNCc1ccc(O)cc1 [Compound 550, 4-((3-(2,6-Dimethylphenoxy)propylamino)methyl)phenol]
IC50 (hNav1.6; [1]): 4.8 µM
IC50 (hNav1.6; [2]): 2.2 µM
IC50 (hNav1.6; [3]): > 10 µM
IC50 (hNav1.2; [4]): 5.1 µM
IC50 (hNav1.2; [5]): 2.2 µM
IC50 (hNav1.2; [6]): > 10 µM

Cc1cccc(C)c1OCCCNCc1ccccc1F [Compound 551, 3-(2,6-Dimethylphenoxy)-N-(2-fluorobenzyl)propan-1-amine]
IC50 (hNav1.6; [1]): 2 µM
IC50 (hNav1.6; [2]): 1.1 µM
IC50 (hNav1.6; [3]): 5.6 µM
IC50 (hNav1.2; [4]): 4.9 µM
IC50 (hNav1.2; [5]): 2.1 µM
IC50 (hNav1.2; [6]): ~10.1 µM

Cc1cccc(C)c1OCCCNCc1cccc(F)c1 [Compound 552, 3-(2,6-Dimethylphenoxy)-N-(3-fluorobenzyl)propan-1-amine]
IC50 (hNav1.6; [1]): 1.9 µM
IC50 (hNav1.6; [2]): 1.2 µM
IC50 (hNav1.6; [3]): 3.1 µM
IC50 (hNav1.2; [4]): 8.1 µM
IC50 (hNav1.2; [5]): 2.4 µM
IC50 (hNav1.2; [6]): 9.5 µM
